# Results taken from article PMC3145970, “Specific CLK Inhibitors from a Novel Chemotype for Regulation of Alternative Splicing” (Chemistry & Biology, 2011).
# Read-outs that look alike come from different tables or passages of the source.
# Experiments:
# Test in all cases: Thermal stability shift assay
# Type in all cases: binding
# [1] = biological target: T1, MAP2K2 (Homo sapiens, UniProt P36507); conditions: read-out: Tm shift MAP2K2
# T1 construct: purchased in-house (SGC Oxford thermal shift panel)
# How it was run: (§1)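 Inhibitor (10 μM) was mixed with kinase (2 μM) in HEPES-buffered saline (10 mM, pH 7.5; 500 mM NaCl) plus SyproOrange, then the sample was heated stepwise in a real-time PCR machine to record denaturation.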
# [2] = biological target: T2, PRKX (Homo sapiens, UniProt P51817); conditions: read-out: Tm shift PRKX
# T2 sequence (P51817 1-358): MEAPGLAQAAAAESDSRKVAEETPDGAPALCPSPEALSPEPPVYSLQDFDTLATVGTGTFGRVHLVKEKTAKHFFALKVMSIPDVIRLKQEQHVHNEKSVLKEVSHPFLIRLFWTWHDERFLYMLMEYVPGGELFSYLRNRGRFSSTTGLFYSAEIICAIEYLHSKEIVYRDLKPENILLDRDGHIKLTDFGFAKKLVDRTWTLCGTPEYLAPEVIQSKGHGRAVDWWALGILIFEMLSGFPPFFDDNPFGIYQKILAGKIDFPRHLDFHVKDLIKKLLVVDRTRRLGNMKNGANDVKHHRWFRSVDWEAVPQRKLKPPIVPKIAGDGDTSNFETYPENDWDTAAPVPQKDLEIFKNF
# How it was run: as §1
# [3] = biological target: T3, JNK1 (Homo sapiens, UniProt P45983); conditions: read-out: Tm shift JNK1
# T3 construct: purchased in-house (SGC Oxford thermal shift panel)
# How it was run: as §1
# [4] = biological target: T4, FGR (Homo sapiens, UniProt P09769); conditions: read-out: Tm shift FGR
# T4 construct: purchased in-house (SGC Oxford thermal shift panel)
# How it was run: as §1
# [5] = biological target: T5, MAP2K6 (Homo sapiens, UniProt P52564); conditions: read-out: Tm shift MAP2K6
# T5 construct: purchased in-house (SGC Oxford thermal shift panel)
# T5 sequence (P52564 1-334): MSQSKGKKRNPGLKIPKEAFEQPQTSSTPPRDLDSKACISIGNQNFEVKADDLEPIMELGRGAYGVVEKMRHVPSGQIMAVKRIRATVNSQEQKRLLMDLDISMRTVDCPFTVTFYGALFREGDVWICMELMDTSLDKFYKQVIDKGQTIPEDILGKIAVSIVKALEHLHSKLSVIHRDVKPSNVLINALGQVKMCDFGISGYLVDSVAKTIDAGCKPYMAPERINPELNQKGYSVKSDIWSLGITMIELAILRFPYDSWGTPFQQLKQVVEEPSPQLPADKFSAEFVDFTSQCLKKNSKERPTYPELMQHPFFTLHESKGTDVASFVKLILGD
# How it was run: as §1
# [6] = biological target: CK2a1 (Homo sapiens, UniProt P68400); conditions: read-out: Tm shift CK2a1
# How it was run: as §1
# [7] = biological target: smMLCK (Homo sapiens, UniProt Q15746); conditions: read-out: Tm shift smMLCK
# How it was run: as §1
# [8] = biological target: T6, eEF2K (Homo sapiens, UniProt O00418); conditions: read-out: Tm shift eEF2K
# T6 construct: purchased in-house (SGC Oxford thermal shift panel)
# T6 sequence (O00418 1-725): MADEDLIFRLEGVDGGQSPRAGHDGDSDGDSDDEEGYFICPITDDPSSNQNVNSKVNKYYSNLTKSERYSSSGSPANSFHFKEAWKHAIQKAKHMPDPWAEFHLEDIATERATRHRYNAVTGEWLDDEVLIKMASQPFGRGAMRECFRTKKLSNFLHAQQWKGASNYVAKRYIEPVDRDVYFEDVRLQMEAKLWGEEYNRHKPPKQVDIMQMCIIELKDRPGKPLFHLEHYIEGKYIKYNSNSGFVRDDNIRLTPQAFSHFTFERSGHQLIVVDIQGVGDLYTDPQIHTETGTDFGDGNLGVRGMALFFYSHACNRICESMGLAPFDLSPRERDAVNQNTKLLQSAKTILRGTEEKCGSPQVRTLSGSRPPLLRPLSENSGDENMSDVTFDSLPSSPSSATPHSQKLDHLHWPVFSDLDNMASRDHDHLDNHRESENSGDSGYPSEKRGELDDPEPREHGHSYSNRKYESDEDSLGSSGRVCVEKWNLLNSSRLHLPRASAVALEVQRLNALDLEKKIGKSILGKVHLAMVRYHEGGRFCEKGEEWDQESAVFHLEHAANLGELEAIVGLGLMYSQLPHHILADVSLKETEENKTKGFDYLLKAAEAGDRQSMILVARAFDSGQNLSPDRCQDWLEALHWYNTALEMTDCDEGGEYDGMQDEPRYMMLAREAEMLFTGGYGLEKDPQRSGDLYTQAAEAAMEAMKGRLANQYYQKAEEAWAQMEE
# How it was run: as §1
# [9] = biological target: T7, RHOK (Homo sapiens, UniProt Q15835); conditions: read-out: Tm shift RHOK
# T7 sequence (Q15835 1-563): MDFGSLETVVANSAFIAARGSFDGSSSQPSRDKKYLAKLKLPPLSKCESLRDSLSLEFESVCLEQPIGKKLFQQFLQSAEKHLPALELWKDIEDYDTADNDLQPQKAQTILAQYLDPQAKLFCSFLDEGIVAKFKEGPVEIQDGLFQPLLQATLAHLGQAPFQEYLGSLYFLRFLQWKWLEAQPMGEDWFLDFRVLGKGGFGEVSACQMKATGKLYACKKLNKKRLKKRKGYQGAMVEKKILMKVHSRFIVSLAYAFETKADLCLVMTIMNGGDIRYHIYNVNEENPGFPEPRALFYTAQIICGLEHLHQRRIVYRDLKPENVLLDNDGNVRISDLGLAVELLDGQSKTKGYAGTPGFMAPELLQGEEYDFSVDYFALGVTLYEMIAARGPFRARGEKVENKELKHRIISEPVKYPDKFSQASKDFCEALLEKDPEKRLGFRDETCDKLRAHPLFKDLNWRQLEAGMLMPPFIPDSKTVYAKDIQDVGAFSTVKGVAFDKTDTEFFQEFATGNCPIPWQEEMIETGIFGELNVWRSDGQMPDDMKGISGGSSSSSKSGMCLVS
# How it was run: as §1
# T1 sequence (P36507 whole entry): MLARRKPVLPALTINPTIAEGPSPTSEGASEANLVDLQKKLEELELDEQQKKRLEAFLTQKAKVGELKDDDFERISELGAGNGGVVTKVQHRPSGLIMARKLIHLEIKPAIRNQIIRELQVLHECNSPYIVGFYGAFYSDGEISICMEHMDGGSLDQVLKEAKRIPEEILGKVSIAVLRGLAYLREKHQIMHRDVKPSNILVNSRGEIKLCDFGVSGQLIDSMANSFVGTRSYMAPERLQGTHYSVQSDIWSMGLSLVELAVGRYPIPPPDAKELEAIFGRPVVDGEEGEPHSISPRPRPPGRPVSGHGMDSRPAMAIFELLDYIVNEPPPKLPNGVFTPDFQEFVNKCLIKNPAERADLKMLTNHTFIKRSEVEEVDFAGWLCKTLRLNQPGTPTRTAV
# Chain of CK2a1 (P68400 whole entry): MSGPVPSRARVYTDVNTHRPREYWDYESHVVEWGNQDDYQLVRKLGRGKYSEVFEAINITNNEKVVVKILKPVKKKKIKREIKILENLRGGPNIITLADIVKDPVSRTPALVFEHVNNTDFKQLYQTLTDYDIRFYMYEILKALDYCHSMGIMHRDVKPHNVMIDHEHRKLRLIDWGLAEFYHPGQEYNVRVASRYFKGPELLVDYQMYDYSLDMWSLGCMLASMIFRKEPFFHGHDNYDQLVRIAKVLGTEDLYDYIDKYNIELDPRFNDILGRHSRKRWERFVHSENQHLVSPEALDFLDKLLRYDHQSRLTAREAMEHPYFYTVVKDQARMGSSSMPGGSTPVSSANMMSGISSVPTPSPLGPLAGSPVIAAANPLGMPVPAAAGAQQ
# Chain of smMLCK (Q15746 whole entry): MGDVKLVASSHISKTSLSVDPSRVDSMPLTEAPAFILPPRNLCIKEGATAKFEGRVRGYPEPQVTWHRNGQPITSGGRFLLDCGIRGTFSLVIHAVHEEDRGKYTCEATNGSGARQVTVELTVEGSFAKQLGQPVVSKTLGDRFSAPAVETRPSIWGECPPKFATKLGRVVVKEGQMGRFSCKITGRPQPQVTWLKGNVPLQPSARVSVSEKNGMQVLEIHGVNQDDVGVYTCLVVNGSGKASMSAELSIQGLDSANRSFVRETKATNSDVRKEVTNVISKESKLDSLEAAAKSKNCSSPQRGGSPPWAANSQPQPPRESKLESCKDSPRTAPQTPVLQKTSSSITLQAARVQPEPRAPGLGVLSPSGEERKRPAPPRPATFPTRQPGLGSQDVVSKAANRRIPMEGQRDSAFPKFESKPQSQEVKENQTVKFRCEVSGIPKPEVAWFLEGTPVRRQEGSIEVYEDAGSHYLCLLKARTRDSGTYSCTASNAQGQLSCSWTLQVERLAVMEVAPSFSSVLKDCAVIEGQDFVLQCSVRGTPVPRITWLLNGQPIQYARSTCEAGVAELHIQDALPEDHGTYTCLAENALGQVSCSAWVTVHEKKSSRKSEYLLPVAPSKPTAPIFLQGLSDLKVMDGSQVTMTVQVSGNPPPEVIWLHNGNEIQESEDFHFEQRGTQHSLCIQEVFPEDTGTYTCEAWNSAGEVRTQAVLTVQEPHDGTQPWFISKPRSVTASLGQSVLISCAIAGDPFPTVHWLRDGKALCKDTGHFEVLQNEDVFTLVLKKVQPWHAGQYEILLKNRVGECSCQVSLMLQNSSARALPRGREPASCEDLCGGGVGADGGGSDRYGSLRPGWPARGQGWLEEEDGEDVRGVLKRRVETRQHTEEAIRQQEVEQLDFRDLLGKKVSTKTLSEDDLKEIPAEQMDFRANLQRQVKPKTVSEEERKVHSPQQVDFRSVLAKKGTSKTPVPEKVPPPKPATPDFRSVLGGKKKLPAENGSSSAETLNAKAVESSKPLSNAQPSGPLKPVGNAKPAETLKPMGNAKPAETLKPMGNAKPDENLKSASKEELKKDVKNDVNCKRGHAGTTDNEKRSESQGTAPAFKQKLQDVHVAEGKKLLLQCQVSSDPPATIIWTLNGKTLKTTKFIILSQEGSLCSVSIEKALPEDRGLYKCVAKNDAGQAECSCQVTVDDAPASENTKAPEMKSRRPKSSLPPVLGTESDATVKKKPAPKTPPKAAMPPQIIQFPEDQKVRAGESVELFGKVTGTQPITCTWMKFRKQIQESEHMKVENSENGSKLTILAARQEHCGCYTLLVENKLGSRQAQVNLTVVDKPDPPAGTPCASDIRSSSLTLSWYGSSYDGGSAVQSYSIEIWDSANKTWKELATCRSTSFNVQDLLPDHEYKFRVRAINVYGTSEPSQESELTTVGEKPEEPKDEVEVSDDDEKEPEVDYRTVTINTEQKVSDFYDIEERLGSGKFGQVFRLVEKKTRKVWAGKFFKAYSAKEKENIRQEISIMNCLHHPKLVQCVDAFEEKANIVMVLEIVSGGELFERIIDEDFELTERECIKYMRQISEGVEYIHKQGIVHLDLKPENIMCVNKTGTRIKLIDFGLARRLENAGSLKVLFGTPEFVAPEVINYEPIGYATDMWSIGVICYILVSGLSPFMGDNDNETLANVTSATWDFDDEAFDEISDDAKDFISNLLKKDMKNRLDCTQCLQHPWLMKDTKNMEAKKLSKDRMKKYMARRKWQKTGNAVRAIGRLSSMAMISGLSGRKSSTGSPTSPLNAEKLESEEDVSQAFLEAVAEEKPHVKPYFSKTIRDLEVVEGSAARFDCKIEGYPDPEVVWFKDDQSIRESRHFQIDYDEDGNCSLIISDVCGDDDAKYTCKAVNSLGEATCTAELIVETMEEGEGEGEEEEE
# T3 sequence (P45983 whole entry): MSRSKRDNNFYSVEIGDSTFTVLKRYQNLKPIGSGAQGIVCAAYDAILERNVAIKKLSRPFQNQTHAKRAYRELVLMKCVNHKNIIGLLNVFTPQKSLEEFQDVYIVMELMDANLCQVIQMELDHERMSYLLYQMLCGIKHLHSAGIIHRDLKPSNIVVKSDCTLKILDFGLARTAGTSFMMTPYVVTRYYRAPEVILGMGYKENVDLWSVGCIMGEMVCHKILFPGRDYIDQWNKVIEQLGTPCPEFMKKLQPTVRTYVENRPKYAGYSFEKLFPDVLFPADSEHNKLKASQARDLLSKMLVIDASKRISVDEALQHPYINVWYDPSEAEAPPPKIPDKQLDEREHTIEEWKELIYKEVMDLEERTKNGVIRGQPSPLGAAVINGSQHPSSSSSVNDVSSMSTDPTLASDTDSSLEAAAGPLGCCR
# T4 sequence (P09769 whole entry): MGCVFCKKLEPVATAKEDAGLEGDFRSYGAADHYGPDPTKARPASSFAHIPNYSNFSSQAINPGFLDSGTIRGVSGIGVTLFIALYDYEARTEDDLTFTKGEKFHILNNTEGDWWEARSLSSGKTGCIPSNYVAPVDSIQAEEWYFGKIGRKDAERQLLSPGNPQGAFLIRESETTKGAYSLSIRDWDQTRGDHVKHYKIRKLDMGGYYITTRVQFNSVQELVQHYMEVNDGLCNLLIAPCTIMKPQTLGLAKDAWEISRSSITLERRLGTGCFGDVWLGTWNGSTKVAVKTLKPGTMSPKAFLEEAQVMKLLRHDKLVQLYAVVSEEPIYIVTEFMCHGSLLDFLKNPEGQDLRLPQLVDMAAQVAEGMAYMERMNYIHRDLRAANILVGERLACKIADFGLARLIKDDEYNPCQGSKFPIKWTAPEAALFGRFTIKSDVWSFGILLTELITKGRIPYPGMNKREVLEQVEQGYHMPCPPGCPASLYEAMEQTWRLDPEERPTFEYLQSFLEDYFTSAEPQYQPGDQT
ΔTm at 10 µM ([1]; inhibitor 10 μM),ΔTm at 10 µM ([2]; inhibitor 10 μM),ΔTm at 10 µM ([3]; inhibitor 10 μM),ΔTm at 10 µM ([4]; inhibitor 10 μM),ΔTm at 10 µM ([5]; inhibitor 10 μM),ΔTm at 10 µM ([6]; inhibitor 10 μM),ΔTm at 10 µM ([7]; inhibitor 10 μM),ΔTm at 10 µM ([8]; inhibitor 10 μM),ΔTm at 10 µM ([9]; inhibitor 10 μM),SMILES,ΔTm at 10 µM [1],ΔTm at 10 µM [2],ΔTm at 10 µM [3],ΔTm at 10 µM [4],ΔTm at 10 µM [5],ΔTm at 10 µM [6],ΔTm at 10 µM [7],ΔTm at 10 µM [8],ΔTm at 10 µM [9]
–,–,–,–,–,–,–,–,–,"CCOC(=O)c1c(C(C#N)=CN)c2ccc(Cl)c(Cl)c2n1C (mixture of isomers) [KH-CB20, (E/Z)-Ethyl 3-(2-Amino-1-Cyanovinyl)-6,7-Dichloro-1-Methyl-1H-Indole-2-Carboxylate]",0 °C,0.4 °C,0.2 °C,0.3 °C,0.6 °C,1.1 °C,0.6 °C,-0.1 °C,0.3 °C
-0.4 °C,0.3 °C,0.1 °C,-0.2 °C,0.4 °C,1.4 °C,1.1 °C,-0.4 °C,0.9 °C,"CCOC(=O)c1c(C(C#N)=CN(C)C)c2ccc(Cl)c(Cl)c2n1C (mixture of isomers) [compound 2, (E/Z)-Ethyl 6,7-Dichloro-3-[1-Cyano-2-(Dimethylamino)Vinyl]-1-Methyl-1H-Indole-2-Carboxylate]",–,–,–,–,–,–,–,–,–
–,–,–,–,–,–,–,–,–,"CCOC(=O)c1c(/C(C#N)=C\N)c2ccc(Cl)c(Cl)c2n1C [KH-CB19, (E)-Ethyl 3-(2-Amino-1-Cyanovinyl)-6,7-Dichloro-1-Methyl-1H-Indole-2-Carboxylate]",0.1 °C,0.5 °C,0.9 °C,-0.3 °C,0.5 °C,1.3 °C,0.5 °C,-0.1 °C,0.5 °C
0.1 °C,0.5 °C,0.2 °C,0.1 °C,0.1 °C,1.3 °C,0.5 °C,0.3 °C,0.9 °C,"Cn1c2c(Cl)c(Cl)ccc2c2c(C#N)c[nH]c(=O)c21 [compound 3, 7,8-Dichloro-9-Methyl-1-Oxo-2,9-Dihydro-1H-Pyrido[3,4-b]Indole-4-Carbonitrile]",–,–,–,–,–,–,–,–,–

SMILES,ΔTm at 10 µM ([1]; inhibitor 10 μM),ΔTm at 10 µM ([2]; inhibitor 10 μM),ΔTm at 10 µM ([3]; inhibitor 10 μM),ΔTm at 10 µM ([4]; inhibitor 10 μM),ΔTm at 10 µM ([5]; inhibitor 10 μM),ΔTm at 10 µM ([6]; inhibitor 10 μM),ΔTm at 10 µM ([7]; inhibitor 10 μM),ΔTm at 10 µM ([8]; inhibitor 10 μM),ΔTm at 10 µM ([9]; inhibitor 10 μM),ΔTm at 10 µM [1],ΔTm at 10 µM [2],ΔTm at 10 µM [3],ΔTm at 10 µM [4],ΔTm at 10 µM [5],ΔTm at 10 µM [6],ΔTm at 10 µM [7],ΔTm at 10 µM [8],ΔTm at 10 µM [9]
"NC1=NC(=O)/C(=C2\CCNC(=O)c3[nH]c(Br)cc32)N1 [Hymenialdisine, hymenialdisine, reference compound]",2 °C,0.3 °C,-0.5 °C,0.7 °C,0.6 °C,0.8 °C,1.9 °C,-0.1 °C,0.7 °C,–,–,–,–,–,–,–,–,–
